# Assay: Stability of analytes in rat plasma and tissue matrices (freeze-thaw, bench-top, autosampler)
# Format: physicochemical
# Conditions: for Stability (ER %) Autosampler: 10°C for 24 h; for Stability (ER %) Bench-top: room temperature for 6 h; for Stability (ER %) Freeze/thaw: three freeze–thaw cycles over 24-h intervals
# Experimental: QC samples were prepared by spiking blank rat plasma with PA, AIC, and TMZ at three concentration levels: 30, 80, and 200 ng/mL. Internal standards (IS1 and IS2) were added to each sample at a final concentration of 100 ng/mL. Whole blood was obtained from untreated anesthetized rats that were euthanized as part of the study protocol. Blood samples were collected into heparinized tubes and centrifuged at 3500 rpm for 10 min at 20°C to separate plasma. Organs including the brain, lungs, kidneys, spleen, and liver were promptly excised and homogenized using a Marconi mechanical tissue homogenizer (5 mm probe) in phosphate‐buffered saline (PBS, pH 7.4) at a 1:5 (w/v) tissue‐to‐buffer ratio.
# For each matrix sample, 50 μL of homogenate or plasma was mixed with 50 μL of internal standard (IS) solution (100 ng/mL), followed by the addition of the respective working solution to reach the target analyte concentration. The volume was adjusted to 1 mL using an appropriate solvent mixture. Samples were centrifuged again at 3500 rpm for 10 min at 4°C. The resulting supernatants were filtered through 0.22 μm membrane filters prior to chromatographic analysis. All calibration standards and QC samples were prepared freshly on the day of analysis to minimize analyte degradation.
# The stability of PA, AIC, and TMZ in rat plasma was assessed under the following conditions using low, medium, and high QC levels: (1) Freeze–thaw stability: Three freeze–thaw cycles over 24‐h intervals; (2) Bench‐top stability: Storage at room temperature for 6 h; (3) Autosampler stability: Storage at 10°C for 24 h. Analytes were considered stable if the relative error (RE%) remained within ±15% (Tiwari and Tiwari [2010]).
# [1] = rat brain homogenate, 200 ng/mL
# [2] = rat kidney homogenate, 30 ng/mL
# [3] = rat kidney homogenate, 80 ng/mL
# [4] = rat kidney homogenate, 200 ng/mL
# [5] = rat liver homogenate, 200 ng/mL
# [6] = rat spleen homogenate, 30 ng/mL
# [7] = rat spleen homogenate, 80 ng/mL
# [8] = rat spleen homogenate, 200 ng/mL
structure (smiles),measurement,setting,value
"NC(=O)c1[nH]cnc1N [AIC, 5‐aminoimidazole‐4‐carboxamide]",Stability (ER %) Autosampler,"rat brain homogenate, 30 ng/mL",2.04%
same,Stability (ER %) Bench-top,"rat brain homogenate, 30 ng/mL",7.13%
same,Stability (ER %) Freeze/thaw,"rat brain homogenate, 30 ng/mL",8.55%
same,Stability (ER %) Autosampler,"rat brain homogenate, 80 ng/mL",4.29%
same,Stability (ER %) Bench-top,"rat brain homogenate, 80 ng/mL",8.22%
same,Stability (ER %) Freeze/thaw,"rat brain homogenate, 80 ng/mL",1.79%
same,Stability (ER %) Autosampler,[1],4.57%
same,Stability (ER %) Bench-top,[1],9.26%
same,Stability (ER %) Freeze/thaw,[1],6.76%
same,Stability (ER %) Autosampler,[2],4.28%
same,Stability (ER %) Bench-top,[2],2.11%
same,Stability (ER %) Freeze/thaw,[2],1.29%
same,Stability (ER %) Autosampler,[3],5.42%
same,Stability (ER %) Bench-top,[3],8.94%
same,Stability (ER %) Freeze/thaw,[3],8.45%
same,Stability (ER %) Autosampler,[4],5.94%
same,Stability (ER %) Bench-top,[4],8.76%
same,Stability (ER %) Freeze/thaw,[4],6.46%
same,Stability (ER %) Autosampler,"rat liver homogenate, 30 ng/mL",4.35%
same,Stability (ER %) Bench-top,"rat liver homogenate, 30 ng/mL",9.13%
same,Stability (ER %) Freeze/thaw,"rat liver homogenate, 30 ng/mL",1.67%
same,Stability (ER %) Autosampler,"rat liver homogenate, 80 ng/mL",1.74%
same,Stability (ER %) Bench-top,"rat liver homogenate, 80 ng/mL",3.28%
same,Stability (ER %) Freeze/thaw,"rat liver homogenate, 80 ng/mL",9.53%
same,Stability (ER %) Autosampler,[5],2.34%
same,Stability (ER %) Bench-top,[5],8.71%
same,Stability (ER %) Freeze/thaw,[5],7.67%
same,Stability (ER %) Autosampler,"rat lung homogenate, 30 ng/mL",2.22%
same,Stability (ER %) Bench-top,"rat lung homogenate, 30 ng/mL",7.93%
same,Stability (ER %) Freeze/thaw,"rat lung homogenate, 30 ng/mL",5.74%
same,Stability (ER %) Autosampler,"rat lung homogenate, 80 ng/mL",2.84%
same,Stability (ER %) Bench-top,"rat lung homogenate, 80 ng/mL",8.37%
same,Stability (ER %) Freeze/thaw,"rat lung homogenate, 80 ng/mL",1.04%
same,Stability (ER %) Autosampler,"rat lung homogenate, 200 ng/mL",3.33%
same,Stability (ER %) Bench-top,"rat lung homogenate, 200 ng/mL",8.49%
same,Stability (ER %) Freeze/thaw,"rat lung homogenate, 200 ng/mL",6.67%
same,Stability (ER %) Autosampler,"rat plasma, 30 ng/mL",12.36%
same,Stability (ER %) Bench-top,"rat plasma, 30 ng/mL",6.77%
same,Stability (ER %) Freeze/thaw,"rat plasma, 30 ng/mL",10.24%
same,Stability (ER %) Autosampler,"rat plasma, 80 ng/mL",13.46%
same,Stability (ER %) Bench-top,"rat plasma, 80 ng/mL",10.93%
same,Stability (ER %) Freeze/thaw,"rat plasma, 80 ng/mL",5.34%
same,Stability (ER %) Autosampler,"rat plasma, 200 ng/mL",3.48%
same,Stability (ER %) Bench-top,"rat plasma, 200 ng/mL",9.03%
same,Stability (ER %) Freeze/thaw,"rat plasma, 200 ng/mL",1.04%
same,Stability (ER %) Autosampler,[6],4.01%
same,Stability (ER %) Bench-top,[6],1.42%
same,Stability (ER %) Freeze/thaw,[6],8.36%
same,Stability (ER %) Autosampler,[7],4.98%
same,Stability (ER %) Bench-top,[7],3.74%
same,Stability (ER %) Freeze/thaw,[7],4.43%
same,Stability (ER %) Autosampler,[8],3.13%
same,Stability (ER %) Bench-top,[8],1.52%
same,Stability (ER %) Freeze/thaw,[8],1.32%

# Source: publication PMC12628652, “A Validated UPLC‐MS/MS Method for Monitoring Temozolomide and Perillyl Alcohol Metabolites in Biological Matrices: Insights From a Preclinical Pharmacokinetic Study” (Biomedical Chromatography, 2025)
